Data taken from patent US20030207014A1, “Animal feed and additive for animal feed to control feed borne pathogens” (priority 2002, published 2003).

Tests used:
[1] = stability under pressure steam sterilization; type: physicochemical
[2] = test system: microbes present in animal feeds; test: laboratory tests of anti-microbial action in animal feed
Excerpt: These properties make sodium percarbonate an ideal feed additive for animal feeds. In the preferred embodiments of the present invention sodium percarbonate is included in the feed formulations prior to the pellet forming process common to most animal feed processing procedures. […] This is due to the broad disinfection action of the sodium percarbonate upon all bacteria and the spores of bacteria, fungi, and algae.
Such mammalian animal proteins have been banned throughout Europe although they continue to be used in other parts of the world. Otherwise the animal feeds in accordance with present invention are substantially the same as conventional animal feeds with the addition of sodium percarbonate.

[3] = feeding of treated feed to livestock / poultry; type: in vivo
Excerpt: The preferred proportion of sodium percarbonate will vary for the specific animal feed composition and the specific animal consuming the feed as well as various environmental factors.

SMILES: O=C([O-])[O-].O=C([O-])[O-].OO.OO.OO.[Na+].[Na+].[Na+].[Na+] [sodium percarbonate]
- stability [1]: very stable
- effectiveness depending on feed composition ([2]; animal feeds that do not include mammalian animal proteins): greatest
- anti-microbial effectiveness ([2]; laboratory tests, all bacteria and spores of bacteria, fungi, algae): effective against all microbes present in animal feeds
- acceptance of treated feed ([3]; livestock): readily accepted
- digestive reactions ([3]; poultry, rates of 2-8% by weight in feed): no untold digestive reactions
